Experimental data reported in patent US20210403420A1, “BENZOATE COMPOUND” (SCOHIA PHARMA, INC., priority 2018, published 2021).
Where a name gives a salt, the structure may show the parent alone.

Experiments:
[1] = target: T1, Human recombinant enteropeptidase (Homo sapiens, UniProt P98073); assay: Human enteropeptidase inhibitory activity; format: biochemical; details: 1 μM test compound; fluorescence intensity at 2 hours after start of reaction; read-out: Inhibition rate at 1 μM
T1 construct: purchased ITSI-Biosciences LLC #REN-260
T1 sequence (P98073 whole entry): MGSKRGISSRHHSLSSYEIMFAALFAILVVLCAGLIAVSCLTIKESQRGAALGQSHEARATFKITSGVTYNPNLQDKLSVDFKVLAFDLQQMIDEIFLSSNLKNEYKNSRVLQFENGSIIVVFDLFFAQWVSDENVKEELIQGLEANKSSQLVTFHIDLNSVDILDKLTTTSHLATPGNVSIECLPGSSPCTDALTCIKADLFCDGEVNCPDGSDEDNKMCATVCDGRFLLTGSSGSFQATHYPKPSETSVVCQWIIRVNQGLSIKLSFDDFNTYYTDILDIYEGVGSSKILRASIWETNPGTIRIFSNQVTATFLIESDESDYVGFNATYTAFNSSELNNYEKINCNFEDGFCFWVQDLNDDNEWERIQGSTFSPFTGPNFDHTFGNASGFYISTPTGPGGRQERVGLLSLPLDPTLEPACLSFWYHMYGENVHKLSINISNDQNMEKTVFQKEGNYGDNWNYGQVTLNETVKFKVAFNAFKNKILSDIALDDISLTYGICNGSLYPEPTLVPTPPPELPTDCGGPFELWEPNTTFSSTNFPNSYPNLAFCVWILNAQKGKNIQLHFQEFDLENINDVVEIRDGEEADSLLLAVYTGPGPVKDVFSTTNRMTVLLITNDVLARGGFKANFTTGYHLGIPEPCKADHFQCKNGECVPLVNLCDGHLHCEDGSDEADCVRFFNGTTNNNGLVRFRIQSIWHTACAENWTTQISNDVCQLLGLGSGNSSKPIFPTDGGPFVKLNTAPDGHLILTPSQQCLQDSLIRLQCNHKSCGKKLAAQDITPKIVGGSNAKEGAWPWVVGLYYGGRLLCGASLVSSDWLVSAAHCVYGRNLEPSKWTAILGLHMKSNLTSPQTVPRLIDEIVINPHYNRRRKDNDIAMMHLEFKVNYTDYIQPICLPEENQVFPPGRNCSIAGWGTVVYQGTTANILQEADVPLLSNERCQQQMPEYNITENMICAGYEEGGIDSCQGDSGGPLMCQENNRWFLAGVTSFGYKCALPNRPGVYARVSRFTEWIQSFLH
Method: Test Example 1: Human Enteropeptidase Inhibitory Activity
Human recombinant enteropeptidase (#REN-260, ITSI-Biosciences LLC) was diluted with an assay buffer (50 mM Tricine, pH 8.0, 0.01 (w/v) %, Tween 20, 10 mM CaCl2)) to prepare a 24 mU/mL enzyme solution. Subsequently, 5FAM-Abu-Gly-Asp-Asp-Asp-Lys-Ile-Val-Gly-Gly-Lys(CPQ2)-Lys-Lys-NH2 (CPC Scientific Inc.) was diluted with the assay buffer to prepare a 2.1 μM substrate solution. A test compound is dissolved in DMSO into a 10 mM solution, and the solution was diluted with the assay buffer to give a compound solution. To a 384-well black plate (#784076, Greiner Bio-One), 5 μL of the compound solution and 5 μL of the substrate solution were added and mixed, and 5 μL of the enzyme solution was then added to the mixture, followed by mixing to start the reaction. The fluorescence intensity was measured with a fluorescence plate reader EnVision (The Perkin-Elmer Corp.) at an excitation wavelength of 485 nm and a fluorescence wavelength of 535 nm. The same reaction as above was performed without the addition of the test compound (test compound non-addition group). Furthermore, the same reaction as above was performed without the addition of the test compound and the enzyme (control group). The inhibition rate was calculated using the fluorescence intensity at 2 hours after the start of the reaction by the following expression:
Inhibition rate (%)=(1−((fluorescence intensity of test compound addition group)−(fluorescence intensity of control group))/((fluorescence intensity of test compound non-addition group)−(fluorescence intensity of control group)))×100

[2] = test system: High fat diet-fed mice; assay: Fecal protein concentration-increasing test using high fat diet-fed mouse; format: in vivo; details: 30 mg/kg oral, feces of first day of administration; for response vs control in vivo at 30 mg/kg: Mus musculus, po, 24 h, vehicle group = 100, read-out: Fecal protein concentration-increasing rate
Excerpt: Test Example 2: Fecal Protein Concentration-Increasing Test Using High Fat Diet-Fed Mouse
High fat diet-fed mice (D12451 diet, male, 10- to 50-week old) were orally administered with a 0.5% methyl cellulose suspension containing a test compound (compound administration group, five mice per group) or a 0.5% methyl cellulose suspension (compound non-administration group (vehicle group), five mice per group), and whole feces were collected on the first day of administration. Dried feces were dissolved in 0.5 N NaOH, followed by centrifugation at 12,000 rpm. The protein concentration in the supernatant was then quantitatively measured (Lowry method), and the amount of protein contained in 1 g of feces was calculated as the fecal protein concentration (mg/g feces). The fecal protein concentration-increasing rate was calculated by the following expression.
Fecal protein concentration-increasing rate (%)=Fecal protein concentration of compound administration group/Fecal protein concentration of vehicle group×100

[3] = test system: Diet-induced obesity (DIO) mice; assay: Anti-obesity effect test using DIO mouse; format: in vivo; details: for Body weight (g) At start of administration: average at start of administration; for Body weight (g) After 7-day administration: average; for Fecal protein concentration-increasing rate (%): feces of eighth day, vehicle = 100
Method: Test Example 3: Anti-Obesity Effect Test Using DIO Mouse
Diet-induced obesity (DIO) mice (D12451 diet, male, 26-week old) were orally administered with a 0.5% methyl cellulose suspension containing a test compound (30 mg/kg) (compound administration group, five mice per group) or a 0.5% methyl cellulose suspension (compound non-administration group (vehicle), five mice per group) once a day for seven days, and whole feces were collected on the eighth day of administration. Dried feces were dissolved in 0.5 N NaOH, followed by centrifugation at 12,000 rpm. The protein concentration in the supernatant was then quantitatively measured (Lowry method), and the amount of protein contained in 1 g of feces was calculated as the fecal protein concentration (mg/g feces). The fecal protein concentration-increasing rate was calculated by the following expression.
Fecal protein concentration-increasing rate (%)=Fecal protein concentration of compound administration group/Fecal protein concentration of vehicle group X 100
The fecal protein concentration-increasing rate and the averages of the body weights at the start of administration and after administration for seven days are shown in Table 6.
Also, DIO mice (D12451 diet, male, 59-week old) were orally administered with a 0.5% methyl cellulose suspension containing a test compound (20 mg/kg) (compound administration group, five mice per group) or a 0.5% methyl cellulose suspension (compound non-administration group (vehicle), five mice per group) once a day for seven days, and whole feces were collected on the eighth day of administration. The fecal protein concentration (mg/g feces) was calculated by the method described above. The fecal protein concentration-increasing rate and the averages of the body weights at the start of administration and after administration for seven days are shown in Table 7.

[4] = DIO mice 59-week old, 20 mg/kg oral once a day for seven days
[5] = DIO mice 26-week old, 30 mg/kg oral once a day for seven days

Question: Which results are given for N=C(N)Nc1ccc(C(=O)Oc2cc(OCCOCCOCCOc3cc(OC(=O)c4ccc(NC(=N)N)cc4)cc(C(=O)N[C@H](CO)C(=O)O)c3)cc(C(=O)N[C@H](CO)C(=O)O)c2)cc1 [Example 10, (2R)-2-[[3-[2-[2-[2-[3-[[(1R)-1-Carboxy-2-hydroxyethyl]carbamoyl]-5-(4-guanidinobenzoyl)oxyphenoxy]ethoxy]ethoxy]ethoxy]-5-(4-guanidinobenzoyl)oxybenzoyl]amino]-3-hydroxypropanoic acid]?
Answer: inhibition at 1 µM [1]: 92%; response vs control in vivo at 30 mg/kg [2]: 179%

Question: Which inhibition at 1 µM [1] does the source give for N=C(N)Nc1ccc(C(=O)Oc2cc(OCCOCCOCCOCCOCCOCCOCCOc3cc(OC(=O)c4ccc(NC(=N)N)cc4)cc(C(=O)N[C@@H](CC(=O)O)C(=O)O)c3)cc(C(=O)N[C@@H](CC(=O)O)C(=O)O)c2)cc1 [Example 3, (2S)-2-[[3-[2-[2-[2-[2-[2-[2-[2-[3-[[(1S)-1,2-Dicarboxyethyl]carbamoyl]-5-(4-guanidinobenzoyl)oxyphenoxy]ethoxy]ethoxy]ethoxy]ethoxy]ethoxy]ethoxy]ethoxy]-5-(4-guanidinobenzoyl)oxybenzoyl]amino]butanedioic acid] here?
Answer: Its inhibition at 1 µM is 98%.

Question: What about the response vs control in vivo at 30 mg/kg [2] of the same compound?
Answer: The response vs control in vivo at 30 mg/kg was 152%.

Question: How did the inhibition at 1 µM [1] turn out when N=C(N)Nc1ccc(C(=O)Oc2cc(OCCOCCOCCOCCOCCOc3cc(OC(=O)c4ccc(NC(=N)N)cc4)cc(C(=O)N[C@@H](CC(=O)O)C(=O)O)c3)cc(C(=O)N[C@@H](CC(=O)O)C(=O)O)c2)cc1 [Example 2, (2S)-2-[[3-[2-[2-[2-[2-[2-[3-[[(1S)-1,2-Dicarboxyethyl]carbamoyl]-5-(4-guanidinobenzoyl)oxyphenoxy]ethoxy]ethoxy]ethoxy]ethoxy]ethoxy]-5-(4-guanidinobenzoyl)oxybenzoyl]amino]butanedioic acid] was run?
Answer: Its inhibition at 1 µM is 98%.

Question: And the response vs control in vivo at 30 mg/kg [2]?
Answer: The response vs control in vivo at 30 mg/kg was 142%.

Question: For N=C(N)c1ccc(OC(=O)c2cc(OCCOCCOCCOc3cc(C(=O)N[C@@H](CC(=O)O)C(=O)O)cc(C(=O)Oc4ccc(C(=N)N)cc4)c3)cc(C(=O)N[C@@H](CC(=O)O)C(=O)O)c2)cc1 [Example 7, (2S)-2-[[3-(4-Carbamimidoylphenoxy)carbonyl-5-[2-[2-[2-[3-(4-carbamimidoylphenoxy)carbonyl-5-[[(1S)-1,2-dicarboxyethyl]carbamoyl]phenoxy]ethoxy]ethoxy]ethoxy]benzoyl]amino]butanedioic acid ditrifluoroacetate], which inhibition at 1 µM [1] is on record?
Answer: Its inhibition at 1 µM is 100%.

Question: What about the response vs control in vivo at 30 mg/kg [2] of the same compound?
Answer: The response vs control in vivo at 30 mg/kg was 115%.

Question: Which results are given for N=C(N)Nc1ccc(C(=O)Oc2ccc(CCC(=O)N[C@H](CC(=O)O)C(=O)O)c(OCCOCCOCCOc3cc(OC(=O)c4ccc(NC(=N)N)cc4)ccc3CCC(=O)N[C@H](CC(=O)O)C(=O)O)c2)cc1 [Example 14, (2R)-2-[3-[2-[2-[2-[2-[2-[3-[[(1R)-1,2-Dicarboxyethyl]amino]-3-oxopropyl]-5-(4-guanidinobenzoyl)oxyphenoxy]ethoxy]ethoxy]ethoxy]-4-(4-guanidinobenzoyl)oxyphenyl]propanoylamino]butanedioic acid]?
Answer: inhibition at 1 µM [1]: 100%; response vs control in vivo at 30 mg/kg [2]: 171%

Question: For N=C(N)Nc1ccc(C(=O)Oc2cc(OCCOCCOc3cc(OC(=O)c4ccc(NC(=N)N)cc4F)cc(C(=O)N[C@H](CC(=O)O)C(=O)O)c3)cc(C(=O)N[C@H](CC(=O)O)C(=O)O)c2)c(F)c1 [Example 18, (2R)-2-[[3-[2-[2-[3-[[(1R)-1,2-Dicarboxyethyl]carbamoyl]-5-(2-fluoro-4-guanidinobenzoyl)oxyphenoxy]ethoxy]ethoxy]-5-(2-fluoro-4-guanidinobenzoyl)oxybenzoyl]amino]butanedioic acid], which inhibition at 1 µM [1] is on record?
Answer: Its inhibition at 1 µM is 100%.

Question: And the response vs control in vivo at 30 mg/kg [2]?
Answer: Its response vs control in vivo at 30 mg/kg is 142%.

Question: For N=C(N)Nc1ccc(C(=O)Oc2cc(OCCOCCOc3cc(OC(=O)c4ccc(NC(=N)N)cc4)cc(C(=O)N[C@@H](CC(=O)O)C(=O)O)c3)cc(C(=O)N[C@@H](CC(=O)O)C(=O)O)c2)cc1 [Example 8, (2S)-2-[[3-[2-[2-[3-[[(1S)-1,2-Dicarboxyethyl]carbamoyl]-5-(4-guanidinobenzoyl)oxyphenoxy]ethoxy]ethoxy]-5-(4-guanidinobenzoyl)oxybenzoyl]amino]butanedioic acid ditrifluoroacetate], which inhibition at 1 µM [1] is on record?
Answer: Its inhibition at 1 µM is 100%.

Question: And the response vs control in vivo at 30 mg/kg [2]?
Answer: The response vs control in vivo at 30 mg/kg was 210%.

Question: What does the source list for N=C(N)Nc1ccc(C(=O)Oc2cc(OCCOCCOCCOc3cc(OC(=O)c4ccc(NC(=N)N)cc4)cc(C(=O)N(CC(=O)O)CC(=O)O)c3)cc(C(=O)N(CC(=O)O)CC(=O)O)c2)cc1 [Example 5, 2-[[3-[2-[2-[2-[3-[Bis(carboxymethyl)carbamoyl]-5-(4-guanidinobenzoyl)oxyphenoxy]ethoxy]ethoxy]ethoxy]-5-(4-guanidinobenzoyl)oxybenzoyl]-(carboxymethyl)amino]acetic acid ditrifluoroacetate]?
Answer: inhibition at 1 µM [1]: 99%; response vs control in vivo at 30 mg/kg [2]: 158%

Question: With N=C(N)Nc1ccc(C(=O)Oc2ccc(C(=O)N[C@H](CC(=O)O)C(=O)O)c(OCCOc3cc(OC(=O)c4ccc(NC(=N)N)cc4)ccc3C(=O)N[C@H](CC(=O)O)C(=O)O)c2)cc1 [Example 22, (2R)-2-[[2-[2-[2-[[(1R)-1,2-Dicarboxyethyl]carbamoyl]-5-(4-guanidinobenzoyl)oxyphenoxy]ethoxy]-4-(4-guanidinobenzoyl)oxybenzoyl]amino]butanedioic acid dihydrochloride] as the compound, how does the “Body weight (g) At start of administration” value ([3]; DIO mice 59-week old, 20 mg/kg group) read?
Answer: The value was 56.5 g.

Question: What about the “Body weight (g) After 7-day administration” value [3, 4] of the same compound?
Answer: Its value is 55.1 g.

Question: And the “Fecal protein concentration-increasing rate (%)” value [3, 4]?
Answer: The value was 221%.

Question: For N=C(N)Nc1ccc(C(=O)Oc2cc(OCCOCCOc3cc(OC(=O)c4ccc(NC(=N)N)cc4)cc(C(=O)N[C@@H](CC(=O)O)C(=O)O)c3)cc(C(=O)N[C@@H](CC(=O)O)C(=O)O)c2)cc1 [Example 17, (2S)-2-[[3-[2-[2-[3-[[(1S)-1,2-Dicarboxyethyl]carbamoyl]-5-(4-guanidinobenzoyl)oxyphenoxy]ethoxy]ethoxy]-5-(4-guanidinobenzoyl)oxybenzoyl]amino]butanedioic acid dihydrochloride], which “Body weight (g) At start of administration” value ([3]; DIO mice 26-week old, 30 mg/kg group) is on record?
Answer: Its value is 45.6 g.

Question: What about the “Body weight (g) After 7-day administration” value [3, 5] of the same compound?
Answer: Its value is 44.3 g.

Question: And the “Fecal protein concentration-increasing rate (%)” value [3, 5]?
Answer: Its value is 252%.

Question: With N=C(N)Nc1ccc(C(=O)Oc2ccc(CCC(=O)N[C@@H](CC(=O)O)C(=O)O)c(OCCOCCOCCOc3cc(OC(=O)c4ccc(NC(=N)N)cc4)ccc3CCC(=O)N[C@@H](CC(=O)O)C(=O)O)c2)cc1 [Example 4, (2S)-2-[3-[2-[2-[2-[2-[2-[3-[[(1S)-1,2-Dicarboxyethyl]amino]-3-oxopropyl]-5-(4-guanidinobenzoyl)oxyphenoxy]ethoxy]ethoxy]ethoxy]-4-(4-guanidinobenzoyl)oxyphenyl]propanoylamino]butanedioic acid ditrifluoroacetate] as the compound, how does the “Fecal protein concentration-increasing rate” value ([2]; vehicle group = 100, ditrifluoroacetate) read?
Answer: Its value is 181%.
